Test results from patent publication US20230136297A1, “Methods Of Treating Fabry Disease In Patients Having A Mutation In The GLA Gene” (Amicus Therapeutics, Inc., priority 2020, published 2023).
Where a chain is given by its changes, count along the chain named.

What was measured:
Test in all cases: α-Gal A activity in lysates of transfected HEK-293 cells ± migalastat (HEK assay)
Format in all cases: cell-based
[1] = target: T1, α-Gal A mutant form A291S (Homo sapiens, UniProt P06280, A291S)
T1 construct: expressed in transfected cells; host or cells: HEK-293
T1 sequence (P06280 32-429 A291S): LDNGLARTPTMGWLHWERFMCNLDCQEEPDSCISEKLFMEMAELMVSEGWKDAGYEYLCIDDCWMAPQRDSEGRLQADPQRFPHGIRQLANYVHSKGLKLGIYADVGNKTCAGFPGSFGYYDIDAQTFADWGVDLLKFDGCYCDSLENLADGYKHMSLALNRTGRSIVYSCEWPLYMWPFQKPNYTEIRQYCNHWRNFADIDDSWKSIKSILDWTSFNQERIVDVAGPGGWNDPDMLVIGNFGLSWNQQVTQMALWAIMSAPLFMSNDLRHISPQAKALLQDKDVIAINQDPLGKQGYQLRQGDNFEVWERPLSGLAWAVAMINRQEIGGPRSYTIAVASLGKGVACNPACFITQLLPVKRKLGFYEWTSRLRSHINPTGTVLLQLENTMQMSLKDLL
Procedure, shortened: (§1)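 Activity is reported as nmol of free 4-MU released per mg protein per hour (nmol/mg/hr).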

[2] = target: T2, α-Gal A mutant form D182G (Homo sapiens, UniProt P06280, D182G)
T2 construct: expressed in transfected cells; host or cells: HEK-293
T2 sequence (P06280 32-429 D182G): T1 sequence (P06280 32-429 A291S) with D151G, S260A
Procedure, shortened: as §1

[3] = target: T3, α-Gal A mutant form G411S (Homo sapiens, UniProt P06280, G411S)
T3 construct: expressed in transfected cells; host or cells: HEK-293
T3 sequence (P06280 32-429 G411S): T1 sequence (P06280 32-429 A291S) with S260A, G380S
Procedure, shortened: as §1

[4] = target: T4, α-Gal A mutant form A143V (Homo sapiens, UniProt P06280, A143V)
T4 construct: expressed in transfected cells; host or cells: HEK-293
T4 sequence (P06280 32-429 A143V): T1 sequence (P06280 32-429 A291S) with A112V, S260A
Procedure, shortened: as §1

[5] = target: T5, α-Gal A mutant form A160D (Homo sapiens, UniProt P06280, A160D)
T5 construct: expressed in transfected cells; host or cells: HEK-293
T5 sequence (P06280 32-429 A160D): T1 sequence (P06280 32-429 A291S) with A129D, S260A
Procedure, shortened: as §1

[6] = 10 μM migalastat minus baseline
[7] = HEK-293 lysates, 10 μM migalastat 5 days, mean ± SEM

Absolute increase (% WT) [1, 6]: 26.8 % WT
Relative increase ([1]; 10 μM migalastat ÷ baseline): 1.55
10 μM migalastat α-Gal A activity [1, 7]: 20029 ± 1654 nmol/mg/h
10 μM migalastat α-Gal A activity (% WT) [1, 7]: 74.5 ± 4^ % WT
Absolute increase (% WT) [2, 6]: 45.6 % WT
Relative increase ([2]; 10 μM migalastat ÷ baseline): 1.56
10 μM migalastat α-Gal A activity [2, 7]: 43772 ± 4156 nmol/mg/h
10 μM migalastat α-Gal A activity (% WT) [2, 7]: 129.6 ± 9.7 % WT
Absolute increase (% WT) [3, 6]: 22 % WT
Relative increase ([3]; 10 μM migalastat ÷ baseline): 1.58
10 μM migalastat α-Gal A activity [3, 7]: 17543 ± 867 nmol/mg/h
10 μM migalastat α-Gal A activity (% WT) [3, 7]: 61.1 ± 3.2 % WT
Absolute increase (% WT) [4, 6]: 31.7 % WT
Relative increase ([4]; 10 μM migalastat ÷ baseline): 3.24
10 μM migalastat α-Gal A activity [4, 7]: 13309 ± 921 nmol/mg/h
10 μM migalastat α-Gal A activity (% WT) [4, 7]: 45.5 ± 3.2 % WT
Absolute increase (% WT) [5, 6]: 25.9 % WT
Relative increase ([5]; 10 μM migalastat ÷ baseline): 1.83
10 μM migalastat α-Gal A activity [5, 7]: 18238 ± 1048 nmol/mg/h
10 μM migalastat α-Gal A activity (% WT) [5, 7]: 56 ± 4.1 % WT
SMILES: OC[C@H]1NC[C@H](O)[C@@H](O)[C@H]1O [migalastat, (2R,3S,4R,5S)-2-(hydroxymethyl) piperdine-3,4,5-triol]
